One data set deals with human GLP-1R (Homo sapiens, UniProt P43220). Kind of data set: cAMP signal analysis of GLP-1R (GLP-1 receptor agonist activity). Type of data set: cell-based. On the procedure:
A wild human GLP-1R (NM_002062.5) was subjected to transient transfection and screened for two weeks by 600 μg/ml of hygromycin-B to obtain a cell line which was recombined and integrated into an FlpInCHO (Invitrogen) cell stable expression system. The culture condition of the FlpInCHO cell was as follows: 10% of heat-inactivated fetal calf serum was added to a DMEM culture solution, and the culture was performed in a 5% carbon dioxide cell incubator.
In the test, an LANCE cAMP detection kit was used for measuring the cAMP signal intensity.

A short description of data set [1]: Pharmacokinetic comparison experiment in rats, single subcutaneous injection. The settings on record: rat, in vivo, sc, 0.02 mg/kg. On the procedure: A single subcutaneous injection was performed with a dose of 0.02 mg/kg; blood collection was performed by tail clipping, and the blood collection time points were: 0 h, 15 min, 30 min, 1 h, 2 h, 3 h, 4 h, 6 h, 8 h, 24 h, 48 h and 72 h. The compound concentration in plasma was determined by LC-MS/MS, all data were collected and exported by Unifi 1.9.3 software, and Excel software was used for data calculation. A non-compartmental model of DAS 3.0 software was used to calculate the pharmacokinetic parameters of rats after administration.

The mark [2] stands for this setting: CHO cell line stably expressing human GLP-1R, downstream cAMP signal, LANCE cAMP kit, read-out: GLP-1R EC50.

Each structure is given as a SMILES string. Where two headings read alike, the source gives them in different places. Numbered stars: 1 amine (or outer) side, 2 acyl side, 3 side chain; on linkers, the order of the positions; unused ones are H or OH. Square brackets hold non-standard residues; d marks the D form. Side chains are listed from the residue outwards. Peptide text beside a SMILES is read from it. * marks the point of attachment. C18 diacid = O=C(O)CCCCCCCCCCCCCCCCC(=O)*; γGlu = O=C(O)[C@H](CCC(=O)[*:2])N[*:1]; dNle = CCCC[C@@H](N)C(=O)O; AEEA = NCCOCCOCC(=O)O

As usually defined, the EC50 is the midpoint of the concentration-response curve. As a reminder, the CL/F is the apparent clearance, not corrected for the fraction that reaches the circulation. One may read the half-life as the time in which the quantity being followed falls by half. High values mean slow loss, low ones fast loss. By AUC(0-inf) is commonly meant total exposure, with the tail of the curve extrapolated. The low end stands for less exposure, the high end for more exposure. The term AUC(0-t) denotes the area under the concentration-time curve up to a stated or last time point. By Cmax is commonly meant the peak of the concentration-time curve. A word on the Tmax: it is the time from dosing to the highest level. By Vd/F is commonly meant the apparent distribution volume after extravascular dosing.

Sequence of human GLP-1R (P43220 24-463): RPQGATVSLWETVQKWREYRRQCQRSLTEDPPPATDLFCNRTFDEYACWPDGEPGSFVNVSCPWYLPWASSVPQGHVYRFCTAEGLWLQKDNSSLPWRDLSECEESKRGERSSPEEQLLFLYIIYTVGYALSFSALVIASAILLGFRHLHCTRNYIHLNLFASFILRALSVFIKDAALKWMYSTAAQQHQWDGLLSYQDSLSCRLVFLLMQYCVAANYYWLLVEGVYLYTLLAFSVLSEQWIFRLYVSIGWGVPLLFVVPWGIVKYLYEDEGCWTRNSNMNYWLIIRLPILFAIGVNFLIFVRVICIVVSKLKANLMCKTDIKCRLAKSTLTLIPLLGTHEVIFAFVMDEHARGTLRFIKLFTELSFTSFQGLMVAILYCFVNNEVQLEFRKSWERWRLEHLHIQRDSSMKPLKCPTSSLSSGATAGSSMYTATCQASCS

As to `CC[C@H](C)[C@H](NC(=O)[C@H](Cc1ccccc1)NC(=O)[C@H](CCC(=O)O)NC(=O)[C@H](CCCCNC(=O)COCCOCCNC(=O)COCCOCCNC(=O)CC[C@H](NC(=O)CCCCCCCCCCCCCCCCC(=O)O)C(=O)O)NC(=O)[C@H](C)NC(=O)[C@H](C)NC(=O)[C@H](CCC(N)=O)NC(=O)[C@](C)(CC)NC(=O)[C@H](CCC(=O)O)NC(=O)[C@H](CC(C)C)NC(=O)[C@H](Cc1ccc(O)cc1)NC(=O)[C@H](CO)NC(=O)[C@H](CO)NC(=O)[C@@H](NC(=O)[C@H](CC(=O)O)NC(=O)[C@H](CO)NC(=O)[C@@H](NC(=O)[C@H](Cc1ccccc1)NC(=O)[C@@H](NC(=O)CNC(=O)[C@H](CCC(=O)O)NC(=O)[C@](C)(CC)NC(=O)[C@@H](N)Cc1c[nH]cn1)[C@@H](C)O)[C@@H](C)O)C(C)C)C(=O)N[C@@H](C)C(=O)N[C@@H](Cc1c[nH]c2ccccc12)C(=O)N[C@@H](CC(C)C)C(=O)N[C@H](C(=O)N[C@@H](CCCNC(=N)N)C(=O)NCC(=O)N[C@@H](CCCNC(=N)N)C(=O)NCC(=O)O)C(C)C` [NO: 3], the EC50 at human GLP-1R (setting [2]) came out at 2.84 ± 0.513 nM. Also, in data set [1] (male), the CL/F is 0.133 mL/min/kg and the half-life was 15.4 h. In data set [1], the AUC(0-inf) is 2810 ng·h/mL; the AUC(0-t) came to 2630 ng·h/mL; the “AUMC(0-t), Mean” value is 73156.82 h * h * μg/L; the “AUMC(0-∞), Mean” value is recorded as 89827.62 h * h * μg/L. Further, in data set [1], the Cmax was 66.8 ng/mL; the “R_AUC(t/∞), Mean” value amounted to 93.53%; the Tmax was 24 h; the Vd/F stood at 0.17 L/kg.
On human GLP-1R, `CC[C@H](C)[C@H](NC(=O)[C@H](Cc1ccccc1)NC(=O)[C@H](CCC(=O)O)NC(=O)[C@H](CCCCNC(=O)COCCOCCNC(=O)COCCOCCNC(=O)CC[C@H](NC(=O)CCCCCCCCCCCCCCCCC(=O)O)C(=O)O)NC(=O)[C@H](C)NC(=O)[C@H](C)NC(=O)[C@H](CCC(N)=O)NC(=O)CNC(=O)[C@H](CCC(=O)O)NC(=O)[C@H](CC(C)C)NC(=O)[C@H](Cc1ccc(O)cc1)NC(=O)[C@H](CO)NC(=O)[C@H](CO)NC(=O)[C@@H](NC(=O)[C@H](CC(=O)O)NC(=O)[C@H](CO)NC(=O)[C@@H](NC(=O)[C@H](Cc1ccccc1)NC(=O)[C@@H](NC(=O)CNC(=O)[C@H](CCC(=O)O)NC(=O)[C@@H]1CCCN1C(=O)[C@@H](N)Cc1c[nH]cn1)[C@@H](C)O)[C@@H](C)O)C(C)C)C(=O)N[C@@H](C)C(=O)N[C@@H](Cc1c[nH]c2ccccc12)C(=O)N[C@@H](CC(C)C)C(=O)N[C@H](C(=O)N[C@@H](CCCNC(=N)N)C(=O)NCC(=O)N[C@@H](CCCNC(=N)N)C(=O)NCC(=O)O)C(C)C` [NO: 18] gave an EC50 of 3.12 ± 0.512 nM.
Take `CC[C@H](C)[C@H](NC(=O)[C@H](Cc1ccccc1)NC(=O)[C@H](CCC(=O)O)NC(=O)[C@H](CCCCNC(=O)COCCOCCNC(=O)COCCOCCNC(=O)CC[C@H](NC(=O)CCCCCCCCCCCCCCCCC(=O)O)C(=O)O)NC(=O)[C@H](C)NC(=O)[C@H](C)NC(=O)[C@H](CCC(N)=O)NC(=O)[C@@](C)(CC)NC(=O)[C@H](CCC(=O)O)NC(=O)[C@H](CC(C)C)NC(=O)[C@H](Cc1ccc(O)cc1)NC(=O)[C@H](CO)NC(=O)[C@H](CO)NC(=O)[C@@H](NC(=O)[C@H](CC(=O)O)NC(=O)[C@H](CO)NC(=O)[C@@H](NC(=O)[C@H](Cc1ccccc1)NC(=O)[C@@H](NC(=O)CNC(=O)[C@H](CCC(=O)O)NC(=O)[C@@](C)(CC)NC(=O)[C@@H](N)Cc1c[nH]cn1)[C@@H](C)O)[C@@H](C)O)C(C)C)C(=O)N[C@@H](C)C(=O)N[C@@H](Cc1c[nH]c2ccccc12)C(=O)N[C@@H](CC(C)C)C(=O)N[C@H](C(=O)N[C@@H](CCCNC(=N)N)C(=O)NCC(=O)N[C@@H](CCCNC(=N)N)C(=O)NCC(=O)O)C(C)C` [NO: 1]: at human GLP-1R (setting [2]), the EC50 came out at 91.7 ± 9.69 nM.
The same measure, in the same setting: for `CCCC[C@@H](NC(=O)[C@H](CCC(=O)O)NC(=O)[C@H](CC(C)C)NC(=O)[C@H](Cc1ccc(O)cc1)NC(=O)[C@H](CO)NC(=O)[C@H](CO)NC(=O)[C@@H](NC(=O)[C@H](CC(=O)O)NC(=O)[C@H](CO)NC(=O)[C@@H](NC(=O)[C@H](Cc1ccccc1)NC(=O)[C@@H](NC(=O)CNC(=O)[C@H](CCC(=O)O)NC(=O)[C@@H](CCCC)NC(=O)[C@@H](N)Cc1c[nH]cn1)[C@@H](C)O)[C@@H](C)O)C(C)C)C(=O)N[C@@H](CCC(N)=O)C(=O)N[C@@H](C)C(=O)N[C@@H](C)C(=O)N[C@@H](CCCCNC(=O)COCCOCCNC(=O)COCCOCCNC(=O)CC[C@H](NC(=O)CCCCCCCCCCCCCCCCC(=O)O)C(=O)O)C(=O)N[C@@H](CCC(=O)O)C(=O)N[C@@H](Cc1ccccc1)C(=O)N[C@H](C(=O)N[C@@H](C)C(=O)N[C@@H](Cc1c[nH]c2ccccc12)C(=O)N[C@@H](CC(C)C)C(=O)N[C@H](C(=O)N[C@@H](CCCNC(=N)N)C(=O)NCC(=O)N[C@@H](CCCNC(=N)N)C(=O)NCC(=O)O)C(C)C)[C@@H](C)CC` [NO: 13] (H-H[dNle]EGTFTSDVSSYLE[dNle]QAAK([AEEA-AEEA-γGlu-C18 diacid])EFIAWLVRGRG-OH) the value was 5.59 ± 0.575 nM.
Molecule `CC[C@H](C)[C@H](NC(=O)[C@H](Cc1ccccc1)NC(=O)[C@H](CCC(=O)O)NC(=O)[C@H](CCCCNC(=O)COCCOCCNC(=O)COCCOCCNC(=O)CC[C@H](NC(=O)CCCCCCCCCCCCCCCCC(=O)O)C(=O)O)NC(=O)[C@H](C)NC(=O)[C@H](C)NC(=O)[C@H](CCC(N)=O)NC(=O)CNC(=O)[C@H](CCC(=O)O)NC(=O)[C@H](CC(C)C)NC(=O)[C@H](Cc1ccc(O)cc1)NC(=O)[C@H](CO)NC(=O)[C@H](CO)NC(=O)[C@@H](NC(=O)[C@H](CC(=O)O)NC(=O)[C@H](CO)NC(=O)[C@@H](NC(=O)[C@H](Cc1ccccc1)NC(=O)[C@@H](NC(=O)CNC(=O)[C@H](CCC(=O)O)NC(=O)[C@@](C)(CC(F)(F)F)NC(=O)[C@@H](N)Cc1c[nH]cn1)[C@@H](C)O)[C@@H](C)O)C(C)C)C(=O)N[C@@H](C)C(=O)N[C@@H](Cc1c[nH]c2ccccc12)C(=O)N[C@@H](CC(C)C)C(=O)N[C@H](C(=O)N[C@@H](CCCNC(=N)N)C(=O)NCC(=O)N[C@@H](CCCNC(=N)N)C(=O)NCC(=O)O)C(C)C` [NO: 20] gave an EC50 on human GLP-1R of 0.693 ± 0.0557 nM.
The same measure, in the same setting: the value for `CC[C@H](C)[C@H](NC(=O)[C@H](Cc1ccccc1)NC(=O)[C@H](CCC(=O)O)NC(=O)[C@H](CCCCNC(=O)COCCOCCNC(=O)COCCOCCNC(=O)CC[C@H](NC(=O)CCCCCCCCCCCCCCCCC(=O)O)C(=O)O)NC(=O)[C@H](C)NC(=O)[C@H](C)NC(=O)[C@H](CCC(N)=O)NC(=O)[C@](C)(NC(=O)[C@H](CCC(=O)O)NC(=O)[C@H](CC(C)C)NC(=O)[C@H](Cc1ccc(O)cc1)NC(=O)[C@H](CO)NC(=O)[C@H](CO)NC(=O)[C@@H](NC(=O)[C@H](CC(=O)O)NC(=O)[C@H](CO)NC(=O)[C@@H](NC(=O)[C@H](Cc1ccccc1)NC(=O)[C@@H](NC(=O)CNC(=O)[C@H](CCC(=O)O)NC(=O)[C@](C)(NC(=O)[C@@H](N)Cc1c[nH]cn1)C(F)(F)C(F)(F)F)[C@@H](C)O)[C@@H](C)O)C(C)C)C(F)(F)C(F)(F)F)C(=O)N[C@@H](C)C(=O)N[C@@H](Cc1c[nH]c2ccccc12)C(=O)N[C@@H](CC(C)C)C(=O)N[C@H](C(=O)N[C@@H](CCCNC(=N)N)C(=O)NCC(=O)N[C@@H](CCCNC(=N)N)C(=O)NCC(=O)O)C(C)C` [NO: 21] was 0.652 ± 0.0417 nM.
